Measured values taken from patent US20260130973A1, “COMPOSITIONS AND METHODS FOR DEGRADATION OF LIPOFUSCIN CYCLORETINAL BY MSP1” (THE TEXAS A&M UNIVERSITY SYSTEM, priority 2022, published 2026).
“Also recorded” adds a separate entry of the source.

Experiments:
in vitro = assay type: cell-based; details: human, arpe-19 cells, EC50 (cytotoxicity)
Method: (§1) The liposomal complexes were prepared as follows. Cycloretinal (10 mg), β-Ionone (20 mg), and 2,4-Dimethylbenzaldehyde (20 mg) were dissolved separately in ethanol (1 mL). Glyoxal (5.80 mg), methylglyoxal (7.21 mg), and β-cyclocitral (15.2 mg) were dissolved separately in chloroform (1 mL). A liposome solution of cholesterol (112 mg), Tween 80 (504 mg), and L-α-phosphatidylcholine (730 mg) were dissolved in 16 mL of chloroform. Liposome solution (2 mL) was added to each of the compounds. The solvents were removed under vacuum and charged with nitrogen. Each of the flasks were then mixed with 5 mL of water and stirred at 60° C. for 1 h. Each solution was placed on ice and sonicated with a probe sonicator (15 seconds on/15 seconds off) for 5 min. The solutions were centrifuged at 11,000×g for 30 min and filtered through a 0.2 μm filter. Each sample (10 μL) was added to 1 mL ethanol and measured by absorption via UV-Vis spectroscopy. […]
Following 24 hour incubation with the liposomal complexes, light induced cell damage was measured by exposing cells to 10 min of irradiation (70 W lamp) through a 430 nm bandpass filter (Thor labs, 430±2 nm). […]
(§2) Cell viability was assessed with the MTT cell proliferation assay. […] The absorbance was subsequently evaluated at 570 nm utilizing a microplate reader (quant absorbance plate reader, BioTek Instruments Inc.) […]

ARPE-19 cells = assay: ARPE-19 cytotoxicity of liposomal complexes, MTT assay; assay type: cell-based; details: similar concentrations as cycloretinal, 96-h period
Method: as §1, with “spectroscopy. The extinction coefficients were 9970 M^−1cm^−1, 26343 M^−1cm^−1, and 13476 M^−1cm^−1 for cycloretinal, 2,4-dimethylbenzaldehyde, and β-ionone, respectively.” for “spectroscopy.”
as §2

[1] = MsP1 catalyzed degradation of cycloretinal; visual inspection and HPLC time course of degradation products; assay type: biochemical; details: at 12 hours
Method: After 24 hours of incubation, broth cultures were transferred to sterile Eppendorf tubes and the organics extracted using an equal volume of dichloromethane (DCM) through vigorous vortexing. The organics were separated by centrifugation (13,000 rpm for 20 minutes), retrieved with a needle, and subsequently concentrated under nitrogen. The dried product was solubilized in 20 μL DCM and analyzed by high performance liquid chromatography (HPLC). HPLC analysis was performed on a Varian Prostar system equipped with a Phenomenex 5 μm 100 Å normal phase column (250×10 mm×5 micron), a UV detector set at 320 nm wavelength and mobile phase comprising 97% DCM and 3% methanol with flow rate of 2 mL/min. Products eluted were further analyzed by GC-MS.
Substrate emulsions (0.01%) were prepared, and Tween 40 was used to enhance solubilization of compounds, or otherwise dissolved in ethanol or DMSO. […]
To generate a standard curve for the degradation products, different concentrations of 2,4-dimethyl benzaldehyde (2, 4, 6, 8, 10 μg/20 μL) and β-ionone (1, 2, 3, 4 μg/20 μL) were analyzed by HPLC under the same conditions as as detailed in Example 3.
To identify the degradation products, cycloretinal was incubated for 1 hour with MsP1 in the presence of hydrogen peroxide. Following incubation, the reaction mixture was extracted and analyzed by GC-MS. […]

Structure (SMILES)	CC50 at 24 h (in vitro)	impact on cell viability / toxicity to ARPE-19 cells (ARPE-19 cells)	level of degradation product in MsP1/cycloretinal reaction (HPLC, standard curve) [1]
CC(C=CC1=C(C)CCCC1(C)C)=CC=CC1=CC=C(C=O)C(C)(C=CC=C(C)C=CC2=C(C)CCCC2(C)C)C1 (stereo not drawn) [cycloretinal]	93 ± 6.1 µM	–	–
CC(=O)/C=C/C1=C(C)CCCC1(C)C [β-ionone]	–	no impact on cell viability; also recorded: do not exhibit toxicity	undetectable levels
